Reference: patent US20240261417A1, “SOS1 DEGRADING AGENT AND PREPARATION METHOD THEREFOR AND APPLICATION THEREOF” (SHANGHAI LEADINGTAC PHARMACEUTICAL CO. LTD., priority 2021, published 2024)

Experiments:
KRAS-G12C/SOS1 = target: T1, KRAS-G12C/SOS1 (Homo sapiens, UniProt Q07889); test: KRAS-G12C/SOS1 binding assay (HTRF); details: inhibition of KRAS-G12C/SOS1 binding
T1 construct: purchased Cisbio 63ADKOOOCB16PEG
T1 sequence (Q07889 1-1333): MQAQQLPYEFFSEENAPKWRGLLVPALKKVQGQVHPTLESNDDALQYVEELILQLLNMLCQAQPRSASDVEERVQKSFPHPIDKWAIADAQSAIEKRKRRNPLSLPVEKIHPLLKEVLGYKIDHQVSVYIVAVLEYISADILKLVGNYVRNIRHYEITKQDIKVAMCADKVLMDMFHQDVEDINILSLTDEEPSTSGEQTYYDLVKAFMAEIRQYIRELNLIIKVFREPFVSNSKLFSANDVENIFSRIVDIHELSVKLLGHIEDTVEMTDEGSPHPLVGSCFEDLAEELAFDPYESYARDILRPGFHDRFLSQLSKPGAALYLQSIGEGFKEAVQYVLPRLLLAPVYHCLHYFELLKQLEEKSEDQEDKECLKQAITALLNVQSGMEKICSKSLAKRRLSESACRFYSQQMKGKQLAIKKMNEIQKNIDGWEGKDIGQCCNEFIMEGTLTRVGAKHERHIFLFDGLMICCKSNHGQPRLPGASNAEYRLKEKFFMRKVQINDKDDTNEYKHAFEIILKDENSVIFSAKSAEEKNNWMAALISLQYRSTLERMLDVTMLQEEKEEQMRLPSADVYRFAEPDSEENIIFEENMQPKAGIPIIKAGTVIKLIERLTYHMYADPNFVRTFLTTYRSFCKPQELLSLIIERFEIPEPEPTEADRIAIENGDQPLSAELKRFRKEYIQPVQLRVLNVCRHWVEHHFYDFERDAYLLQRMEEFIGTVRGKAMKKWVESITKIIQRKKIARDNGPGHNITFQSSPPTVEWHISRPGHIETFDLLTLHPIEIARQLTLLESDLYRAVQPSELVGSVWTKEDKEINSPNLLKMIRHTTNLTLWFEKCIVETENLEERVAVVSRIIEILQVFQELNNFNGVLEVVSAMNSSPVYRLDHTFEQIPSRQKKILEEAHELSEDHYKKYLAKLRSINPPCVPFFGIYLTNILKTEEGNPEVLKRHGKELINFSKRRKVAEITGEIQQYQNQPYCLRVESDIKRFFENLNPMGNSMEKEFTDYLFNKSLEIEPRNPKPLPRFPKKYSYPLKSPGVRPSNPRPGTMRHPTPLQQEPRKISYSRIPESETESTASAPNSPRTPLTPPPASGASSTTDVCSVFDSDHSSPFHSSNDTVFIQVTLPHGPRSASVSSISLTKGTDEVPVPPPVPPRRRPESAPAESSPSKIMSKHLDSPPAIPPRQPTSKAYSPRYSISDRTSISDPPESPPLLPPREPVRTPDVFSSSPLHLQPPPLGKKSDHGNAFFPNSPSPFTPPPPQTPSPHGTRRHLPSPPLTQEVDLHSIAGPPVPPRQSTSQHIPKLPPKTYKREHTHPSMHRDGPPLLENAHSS
Protocol: The following method was used to determine the extent of inhibition of KRAS-G12C/SOS1 binding by the preferred compounds of the present invention under in vitro conditions. In this method, the competitive inhibition of KRAS-G12C/SOS1 binding by the preferred compounds was assayed by the homogeneous time-resolved fluorescence (HTRF) technology using the KRAS-G12C/SOS1 binding assay kit (Cisbio, 63ADKOOOCB16PEG).
The experimental procedures were as follows (refer to the kit instructions for details): the compounds of the present invention were each firstly dissolved in DMSO at a concentration of 20 mM, and then diluted in an equal gradient with a buffer in the kit, so that the final concentrations of the test compounds in the reaction system were in a range of 10000 nM-0.04 nM, and the final concentration of DMSO was 0.5%. 2 μL of the compounds were each incubated with 4 μL of 1×Tag1-SOS1, 4 μL of 1×Tag2-KRAS-G12C (containing 10 μM guanosine triphosphate, GTP) at 25° C. for 15 min. Then 5 μL of 1× Anti-Tag1-Tb3+ and 5 μL of 1× Anti-Tag2-XL665 were added to the reaction system, and the mixture was incubated on ice for 3 h. After the incubation, the fluorescence intensity of each well was measured at the excitation wavelength of 337 nm, the fluorescence intensity of each well was read at the emission wavelengths of 620 nm and 665 nm on a microplate reader EnVision (PerkinElmer, 2105) in an HTRF mode, and the Ratio value was calculated by the formula Ratio=(665 nm/620 nm)×[…]. The inhibition rates of the compounds at each concentration were calculated by comparing the fluorescence intensity ratio with that of the control group, and then nonlinear curve fitting was performed by GraphPad Prism 8 in the logarithmic concentration-inhibition rate to obtain the IC50 values of the compounds, as shown in Table 1.

SOS1 protein = target: T2, SOS1 protein (Homo sapiens, UniProt Q07889); test: SOS1 degradation assay (Western blot), NCI-H358 cells; type: cell-based; design: The degradation of SOS1 by the compounds was investigated on KRAS G12C mutant human non-small cell lung cancer cells NCI-H358; host or cells: NCI-H358 (human cancer cell lines); details: SOS1 degradation, NCI-H358 cells, 24 h, Western blot; for DC50: read-out: NCI-H358 (G12C) DC50; for Dmax: read-out: NCI-H358 (G12C) Dmax
T2 sequence (Q07889 1-1333): T1 sequence (Q07889 1-1333)
Summary of the method: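 Cells at 5×10^5 per well were treated for 24 h at 37 °C with compound at 0.03–3000 nM final. SOS1 in lysates was measured by Western blot with chemiluminescent densitometry and normalised to the control group. DC50 and Dmax came from nonlinear fits against log concentration.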

IC50 (KRAS-G12C/SOS1) [nM]	DC50 (SOS1 protein) [nM]	Dmax (SOS1 protein) [%]	Compound
≤ 15	< 50	50 to 80	COc1cc2nc(C)nc(N[C@H](C)c3cc(N)cc(C(F)(F)F)c3)c2cc1C1=CCC(C(=O)N2CCC(CCOCC3CCN(C(=O)c4ccc(Cl)c(N5CCC(=O)NC5=O)c4)CC3)CC2)CC1 (stereo partly drawn) [Example 64, 1-(5-(4-((2-(1-(4-(4-(((R)-1-(3-amino-5-(trifluoromethyl)phenyl)ethyl)amino)-7-methoxy-2-methylquinazolin-6-yl)cyclohex-3-ene-1-carbonyl)piperidin-4-yl)ethoxy)methyl)piperidine-1-carbonyl)-2-chlorophenyl)dihydropyrimidine-2,4(1H,3H)-dione]
≤ 15	< 50	50 to 80	[2H]C([2H])(OCC1CCN(C(=O)[C@H]2CC[C@H](c3cc4c(N[C@H](C)c5cc(N)cc(C(F)(F)F)c5)nc(C)nc4cc3OC)CC2)CC1)C1CCN(C(=O)c2ccc(Cl)c(N3CCC(=O)NC3=O)c2)CC1 [Example 75, 1-(5-(4-(((1-((1R,4R)-4-(4-(((R)-1-(3-amino-5-(trifluoromethyl)phenyl)ethyl)amino)-7-methoxy-2-methylquinazolin-6-yl)cyclohexane-1-carbonyl)piperidin-4-yl)methoxy)methyl-d2)piperidine-1-carbonyl)-2-chlorophenyl)dihydropyrimidine-2,4(1H,3H)-dione]
≤ 15	< 50		COc1cc2nc(C)nc(N[C@H](C)c3cc(N)cc(C(F)(F)F)c3)c2cc1[C@H]1CC[C@H](C(=O)N2CCC(CCOCC3CCN(C(=O)c4ccc(F)c(N5CCC(=O)NC5=O)c4)CC3)CC2)CC1 [Example 44, 1-(5-(4-((2-(1-((1R,4R)-4-(4-(((R)-1-(3-amino-5-(trifluoromethyl)phenyl)ethyl)amino)-7-methoxy-2-methylquinazolin-6-yl)cyclohexane-1-carbonyl)piperidin-4-yl)ethoxy)methyl)piperidine-1-carbonyl)-2-fluorophenyl)dihydropyrimidine-2,4(1H,3H)-dione]
≤ 15			COc1cc2nc(C)nc(N[C@H](C)c3cccc4c3CCS4(=O)=O)c2cc1[C@H]1CC[C@H](C(=O)N2CCC(CCOCC3CCN(C(=O)c4ccc(Cl)c(N5CCC(=O)NC5=O)c4)CC3)CC2)CC1 [Example 55, 1-(2-chloro-5-(4-((2-(1-((1R,4R)-4-(4-(((R)-1-(1,1-dioxido-2,3-dihydrobenzo[b]thiophen-4-yl)ethyl)amino)-7-methoxy-2-methylquinazolin-6-yl)cyclohexane-1-carbonyl)piperidin-4-yl)ethoxy)methyl)piperidine-1-carbonyl)phenyl)dihydropyrimidine-2,4(1H,3H)-dione]

Continued, compound first:

Compound	IC50 (KRAS-G12C/SOS1) [nM]	DC50 (SOS1 protein) [nM]	Dmax (SOS1 protein) [%]
CNCc1ccccc1-c1csc([C@@H](C)Nc2nc(C)nc3cc(OC)c([C@H]4CC[C@H](C(=O)N(C)CCCC5CCC6(CC5)CCN(C(=O)c5ccc(Cl)c(N7CCC(=O)NC7=O)c5)CC6)CC4)cc23)c1 [Example 49, (1R,4R)—N-(3-(3-(4-chloro-3-(2,4-dioxotetrahydropyrimidin-1(2H)-yl)benzoyl)-3-azaspiro[5.5]undecan-9-yl)propyl)-4-(7-methoxy-2-methyl-4-(((R)-1-(4-(2-((methylamino)methyl)phenyl)thien-2-yl)ethyl)amino)quinazolin-6-yl)-N-methylcyclohexane-1-carboxamide]	≤ 15	100 to 500	50 to 80
Cc1nc(N[C@H](C)c2cc(N)cc(C(F)(F)F)c2)c2cc([C@H]3CC[C@H](C(=O)N4CCN(CC5CCC6(CC5)CCN(C(=O)c5ccc(Cl)c(N7CCC(=O)NC7=O)c5)CC6)CC4)CC3)c(C)cc2n1 [Example 72, 1-(5-(9-((4-((1R,4R)-4-(4-(((R)-1-(3-amino-5-(trifluoromethyl)phenyl)ethyl)amino)-2,7-dimethylquinazolin-6-yl)cyclohexane-1-carbonyl)piperazin-1-yl)methyl)-3-azaspiro[5.5]undecane-3-carbonyl)-2-chlorophenyl)dihydropyrimidine-2,4(1H,3H)-dione]	≤ 15	< 50	50 to 80
COc1cc2nc(C)nc(N[C@H](C)c3cc(N)cc(C(F)(F)F)c3)c2cc1[C@H]1CC[C@H](C(=O)N2CCN(CCN3CCC4(CC3)CCN(C(=O)c3ccc(Cl)c(N5CCC(=O)NC5=O)c3)CC4)CC2)CC1 [Example 3, 1-(5-(9-(2-(4-((1R,4R)-4-(4-(((R)-1-(3-amino-5-(trifluoromethyl)phenyl)ethyl)amino)-7-methoxy-2-methylquinazolin-6-yl)cyclohexane-1-carbonyl)piperazin-1-yl)ethyl)-3,9-diazaspiro[5.5]undecane-3-carbonyl)-2-chlorophenyl)dihydropyrimidine-2,4(1H,3H)-dione]	≤ 15	< 50	80 to 100
CNCc1ccccc1-c1csc([C@@H](C)Nc2nc(C)nc3cc(OC)c([C@H]4CC[C@H](C(=O)N5CCN(CCC6CCC7(CC6)CCN(C(=O)c6ccc(Cl)c(N8CCC(=O)NC8=O)c6)CC7)CC5)CC4)cc23)c1 [Example 50]	≤ 15	< 50	80 to 100
COc1cc2nc(C)nc(N[C@H](C)c3cc(-c4c(Cl)cccc4CN(C)C)cs3)c2cc1[C@H]1CC[C@H](C(=O)N2CCC(CCOCC3CCN(C(=O)c4ccc(OC(F)(F)F)c(N5CCC(=O)NC5=O)c4)CC3)CC2)CC1 [Example 58, 1-(5-(4-((2-(1-((1R,4R)-4-(4-(((R)-1-(4-(2-chloro-6-((dimethylamino)methyl)phenyl)thien-2-yl)ethyl)amino)-7-methoxy-2-methylquinazolin-6-yl)cyclohexane-1-carbonyl)piperidin-4-yl)ethoxy)methyl)piperidine-1-carbonyl)-2-(trifluoromethoxy)phenyl)dihydropyrimidine-2,4(1H,3H)-dione]	≤ 15		
COc1cc2nc(C)nc(N[C@H](C)c3cccc4c3CCS4(=O)=O)c2cc1[C@H]1CC[C@H](C(=O)N2CCC(CCOCC3CCN(C(=O)c4ccc(C(F)(F)F)c(N5CCC(=O)NC5=O)c4)CC3)CC2)CC1 [Example 66, 1-(5-(4-((2-(1-((1R,4R)-4-(4-(((R)-1-(1,1-dioxido-2,3-dihydrobenzo[b]thiophen-4-yl)ethyl)amino)-7-methoxy-2-methylquinazolin-6-yl)cyclohexane-1-carbonyl)piperidin-4-yl)ethoxy)methyl)piperidine-1-carbonyl)-2-(trifluoromethyl)phenyl)dihydropyrimidine-2,4(1H,3H)-dione]	≤ 15		
